From US6762185B1, “Compounds useful for treatment of cancer, compositions containing the same, and methods of their use” (Choongwae Pharma Corporation, priority 2002, dated 2004) come the findings set out here.

Series [1] deals with SW480 cells. The series can be described thus: Bioassay for the measurement of IC50 against SW480 cells (TOPFlash/pRL-null luciferase). It is filed as cell-based. To be noted: Homo sapiens, 24 hrs treatment, firefly and renilla luciferase activities, read-out: IC50 against SW480 cell growth. The procedure: FIG. 8. Measurement of IC50 of TCF4 compound for SW480 cells. Cell growth inhibition on SW480 cells is measured at various concentrations of TCF4 compound in order to obtain the IC50 value. Specifically, the degree of inhibition in firefly and renilla luciferase activities by TCF4 compound was determined. […] Detailed procedures are the same as disclosed in Example 8.
SW480 cells were transfected with the usage of Superfect™ transfect reagent (Qiagen, 301307). Cells were trypsinized briefly 1 day before transfection and plated on 6 well plate (5×10^5 cells/well) so that they were 50-80% confluent on the day of transfection. Four microgram (TOPFlash) and one microgram (pRL-null) of DNAs were diluted in 150 μl of serum-free medium, and 30 μl of Superfect™ transfect reagent was added. The DNA-Superfect mixture was incubated at room temperature for 15 min, after that 1 ml of 10% FBS DMEM was added to this complex for an additional 3 hr of incubation. While complexes were forming, cells were washed with PBS twice without antibiotics. The DNA-Superfect™ transfect reagent complexes were applied to the cells before incubating at 37° C. at 5% CO2 for 3 h. After incubation, recovery medium with 10% FBS was added to bring the final volume to 1.18 ml. After 3 hr incubation, the cells were harvested and reseeded to 96 well plate (3×10^4 cells/well). […]

For series [2], the system named is TCF4/β-catenin transcriptional pathway. The series can be described thus: TCF4/β-catenin reporter gene assay (pTOPFlash luciferase) in SW480 cells. The format is cell-based. To be noted: 24 hours treatment, firefly normalized to renilla. The procedure: The compound having general formula (I) wherein R1 is 2-naphthyl and R2 is phenyl is used for this experiment (it is referred to as ‘TCF4 compound’ hereinafter). Each transfection was performed in duplicate and repeated at least three times. SW480 cells were transfected transiently with 4.0 μg firefly luciferase reporter plasmid (pTOPFlash) and 0.8 μg renilla luciferase reporter plasmid (pRL-null). Firefly luciferase activity was normalized to renilla luciferase activity.
SW480 cells were maintained in DMEM with 10% fetal bovine serum supplemented with non-essential amino acid and antibiotics. Transient transfections into SW480 cells were carried out by Superfect (Qiagen,301307). For TCF4/β-catenin reporter gene assay, 4 μg of pTOPFlash and 0.8 μg of pRL-null were cotransfected. After 24 hours of transfection, SW480 cells were treated with TCF4 compound at varying concentrations. Firefly luciferase and renilla luciferase activities were measured 24 hours after said TCF4 compound treatment, and the firefly luciferase activity was normalized to the renilla luciferase activity (FIG. 1).

Series [3] deals with CBP-mediated transcriptional activation. The series can be described thus: CBP-mediated transcriptional activation, pTOPFlash with CBP and/or β-catenin cotransfection in SW480 cells. The format is cell-based. To be noted: SW480 cells cotransfected with pTOPFlash. The procedure:
FIG. 2. […] SW480 cells were cotransfected with 1.1 μg of the pTOPFlash reporter, and 0.8 μg […], in the presence or absence of TCF4 compound and CBP and/or β-catenin, which are present in various concentrations(1.1 to 3.3 μg), is shown to reverse the inhibiting action of TCF4 compound on CBP-mediated transcriptional activation.
In order to determine the inhibitory effect of TCF4 compound on CBP-mediated transcriptional activation, reporter plasmid pTOPFlash (1.1 μg), CBP expression vector (1.1 to 3.3 μg), wild type beta-catenin expression vector (1.1 to 3.3 μg) and pRL-null (0.8 μg) were cotransfected into SW480. Total amount of DNA was adjusted to 6.3 μg. After 24 hours incubation, TCF4 compound was added and cells were washed and luciferase activity was measured. Firefly luciferase activity was normalized to renilla luciferase activity (FIG. 2).

A further series deals with T1, CBP (Homo sapiens, UniProt Q92793).
T1 construct: expressed in transfected cells; host or cells: SW480
T1 sequence (Q92793 whole entry): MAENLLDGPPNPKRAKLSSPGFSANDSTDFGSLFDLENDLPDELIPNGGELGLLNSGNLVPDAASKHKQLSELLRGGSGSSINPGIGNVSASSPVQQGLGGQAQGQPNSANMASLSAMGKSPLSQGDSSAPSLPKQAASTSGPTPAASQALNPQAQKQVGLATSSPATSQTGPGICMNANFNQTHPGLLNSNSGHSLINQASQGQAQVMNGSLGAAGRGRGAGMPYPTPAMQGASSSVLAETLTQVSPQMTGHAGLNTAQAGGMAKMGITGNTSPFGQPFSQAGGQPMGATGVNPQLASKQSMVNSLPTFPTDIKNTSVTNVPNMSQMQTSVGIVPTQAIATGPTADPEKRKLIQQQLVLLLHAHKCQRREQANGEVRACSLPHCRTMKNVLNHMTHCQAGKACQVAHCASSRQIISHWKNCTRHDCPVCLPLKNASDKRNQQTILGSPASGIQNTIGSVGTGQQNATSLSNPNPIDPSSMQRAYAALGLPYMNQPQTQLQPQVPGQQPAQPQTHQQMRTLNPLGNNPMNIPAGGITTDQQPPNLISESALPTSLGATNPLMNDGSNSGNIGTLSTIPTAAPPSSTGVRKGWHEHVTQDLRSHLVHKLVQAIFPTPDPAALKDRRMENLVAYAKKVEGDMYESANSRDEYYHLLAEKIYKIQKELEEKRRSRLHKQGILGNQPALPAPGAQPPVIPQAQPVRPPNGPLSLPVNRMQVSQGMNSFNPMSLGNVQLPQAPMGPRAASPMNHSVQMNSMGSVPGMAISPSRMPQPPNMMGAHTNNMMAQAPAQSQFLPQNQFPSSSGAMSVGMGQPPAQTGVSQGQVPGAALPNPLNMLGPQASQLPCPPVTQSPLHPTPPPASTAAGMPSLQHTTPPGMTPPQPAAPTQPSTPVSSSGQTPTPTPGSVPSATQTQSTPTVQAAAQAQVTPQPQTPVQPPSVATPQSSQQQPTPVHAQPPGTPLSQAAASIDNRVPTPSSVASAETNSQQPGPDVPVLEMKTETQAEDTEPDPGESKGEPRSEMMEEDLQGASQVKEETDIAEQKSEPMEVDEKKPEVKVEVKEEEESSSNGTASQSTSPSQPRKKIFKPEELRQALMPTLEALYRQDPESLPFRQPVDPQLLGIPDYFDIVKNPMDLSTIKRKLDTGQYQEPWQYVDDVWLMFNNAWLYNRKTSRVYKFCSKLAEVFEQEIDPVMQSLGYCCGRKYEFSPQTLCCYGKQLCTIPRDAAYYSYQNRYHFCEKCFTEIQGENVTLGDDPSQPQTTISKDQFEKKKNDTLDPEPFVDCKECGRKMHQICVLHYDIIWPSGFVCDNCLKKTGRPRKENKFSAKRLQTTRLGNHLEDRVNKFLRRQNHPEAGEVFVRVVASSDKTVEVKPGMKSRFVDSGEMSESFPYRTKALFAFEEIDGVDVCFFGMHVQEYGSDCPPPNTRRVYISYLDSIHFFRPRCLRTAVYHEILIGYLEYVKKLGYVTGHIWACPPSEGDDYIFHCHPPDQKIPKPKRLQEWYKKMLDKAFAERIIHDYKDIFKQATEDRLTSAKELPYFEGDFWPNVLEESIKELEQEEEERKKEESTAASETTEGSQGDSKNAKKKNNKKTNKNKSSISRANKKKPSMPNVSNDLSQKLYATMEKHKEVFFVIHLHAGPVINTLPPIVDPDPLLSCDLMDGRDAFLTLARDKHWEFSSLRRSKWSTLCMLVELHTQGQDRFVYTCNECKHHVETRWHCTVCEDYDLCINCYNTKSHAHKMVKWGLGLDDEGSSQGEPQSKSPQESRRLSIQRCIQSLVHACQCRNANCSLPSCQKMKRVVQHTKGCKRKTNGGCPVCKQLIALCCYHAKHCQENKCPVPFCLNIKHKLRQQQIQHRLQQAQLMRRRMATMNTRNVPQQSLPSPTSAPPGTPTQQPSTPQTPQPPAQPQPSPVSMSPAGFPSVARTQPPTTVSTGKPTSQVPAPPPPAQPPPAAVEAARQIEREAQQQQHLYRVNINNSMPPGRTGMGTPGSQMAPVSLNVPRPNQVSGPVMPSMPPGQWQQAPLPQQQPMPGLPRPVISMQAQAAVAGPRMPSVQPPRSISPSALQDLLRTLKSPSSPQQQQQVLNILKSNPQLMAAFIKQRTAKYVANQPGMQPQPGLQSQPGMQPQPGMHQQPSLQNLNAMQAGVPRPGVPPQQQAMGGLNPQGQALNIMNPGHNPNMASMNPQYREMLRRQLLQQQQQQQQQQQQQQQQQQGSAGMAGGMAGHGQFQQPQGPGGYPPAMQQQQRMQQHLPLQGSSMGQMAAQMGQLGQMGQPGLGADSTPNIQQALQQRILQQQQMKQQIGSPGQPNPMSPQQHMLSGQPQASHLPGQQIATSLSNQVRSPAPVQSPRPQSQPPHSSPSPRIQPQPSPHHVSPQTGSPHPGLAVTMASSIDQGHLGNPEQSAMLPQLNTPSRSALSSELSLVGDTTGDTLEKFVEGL
Nature of the series: Binding of 14C-TCF4 compound to nuclear extracts of SW480 transfected with CBP or β-catenin. To be noted: 14C-labelled compound, nuclear lysate of transfected SW480, 4° C., 18 hours. The procedure: FIG. 3. […] SW480 cells were transiently transfected with β-catenin or CBP expression plasmid. 48 hours after transfection, nuclear protein extracts were collected. 14C-Tcf4 was incubated with nuclear lysate.
Nuclear protein extracts from SW480 transfected with CBP expression vector or wild type β-catenin expression vector were collected using NE-PER Nuclear and Cytoplasmic Extraction Reagents (Pierce) and incubated with ^14C-TCF4 compound at 4° C. for 18 hours. Each samples were washed with Sephadex G-25 columns equilibrated with 5 mL of PBB (20 mM HEPES, pH 7.9, 60 mM NaCl, 6 mM MgCl2, 0.5 mM EDTA, 0.1% NP-40, 20% glycerol, 5 mM 2-ME, 1 mM PMSF) and protein samples eluted by centrifugation were transferred to a scintillation vial containing 2 mL of scintillation fluid. Radio activities were counted using scintillation counter (Beckman).

The next series deals with survivin. The series can be described thus: Survivin expression in SW480 cells (RT-PCR and Western blot). It is filed as cell-based, human. The procedure: FIGS. 5A and 5B. Inhibition of survivin expression by TCF4 compound in […]. FIG. 5A. Surviving mRNA (363 bp) level was assessed by RT-PCR in SW480 cell 24 hours after incubation 25 μM TCF4 compound. β-actin mRNA (564 bp) level is shown as an internal control. FIG. 5B. Survivin protein (MW 16,500) level was assessed by Western blots in SW480 using anti-survivin monoclonal antibody after TCF4 incubation with compound for 48 hrs.
Total RNA was isolated from SW480 cells treated with the TCF4 compound using Rneasy midi kit (Qiagen, Valencia, Calif., 75142). One microgram of RNA was used as a template for RT-PCR. The expression of survivin was evaluated with RT-PCR and Western blot. The primer used to detect fragments of the survivin gene was designed from published human sequences (Cancer Res., 2001, 62, 8664-8667). The sequences used were 5′-[…]-3′ and 5′-[…]-3′, which can give an amplified product of 363 bp. The RT-PCR reaction was processed by Access RT-PCR system (Promega A1260). (FIG. 5) Survivin 6E4 Monoclonal antibody (Cell signaling Technology, 2802) was used for Western blot of TCF4 compound treated SW480 cells. (FIG. 5B).
A general note: Immunoblotting shows a protein as a band on a membrane.

The next series concerns caspase-3. Nature of the series: Caspase-3 activation in SW480 cells (Cbz-DEVD-R110 substrate). The format is cell-based. To be noted: SW480 cells treated 24 hours, dose dependent. The procedure:
FIG. 6. TCF4 compound induces caspase-3 activation in a dose-dependent manner. SW480 cells were treated with TCF4 compound for 24 hours. Whole cell protein extracts were prepared and 100 μg aliquots of protein extracts were incubated with Cbz-DEVD-R110 substrate for 2 hours at 37° C. Relative fluorescence unit (RFU) was obtained by subtracting the unit values of the blank control from the experimental measured values. SW480 cells were treated with TCF4 compound for 24 hours, collected and washed with PBS, and lysed in 100 μl ice cold hypotonic lysis buffer which is commercially available (Promega). 100 μg of the cell extracts were incubated in reaction buffer containing Cbz-DEVD-R110 (caspase-3 substrate: Promega) at 37° C. for 2 hours (FIG. 6). It is clear the FIG. 6 that caspase-3 activity was stimulated by the presence of the TCF4 compound, in a dose dependent manner.

Series [4] deals with SW480 cells. The series can be described thus: Soft agar cell growth and colony formation assay. To be noted: SW480 cells in soft agar, 8 days. The format is cell-based. How it is done:
FIG. 7. Cell growth and colony formation assays. SW480 cells were treated with TCF4 compound. The resulting cells are placed in a soft agar plate and incubated at 37° C. in CO2 incubator for 8 days. Number of colonies were counted under microscope. Agar plates were prepared to contain 10% FBS, 2 mM L-glutamine, 0.1 mM non-essential amino acid, 1×pen/strep and 1.6% agarose for bottom layer and DMEM containing 10% FBS, 2 mM L-glutamine, 0.1 mM non-essential amino acid, 1×pen/strep for upper layer. TCF4 compound solution and upper layer solution containing agarose were mixed and SW480 cells were added and solidified. Plates were incubated 37° C. at CO2 incubator for 8 days after solidification at room temperature for 30 min and colonies were counted under microscope (FIG. 7).

The test system of series [5] is SW480 cells. The series can be described thus: Combination with 5-FU tested against SW480 cell lines. It is filed as cell-based. The procedure: It has been known from previous art that 5-FU [Fluorouracil; 5-fluoro-2,4(1H, 3H)-pyrimidinedione] can induce apoptosis in cultured oral cancer cells (D. Tong et al., Oral Oncology 36, 2000 236-241). Further, it is also known that colon cancer has a sensitivity to 5-FU (D. Arango et al., Cancer Research 61, 2001 4910-4915). In the present invention, therefore, the combination of 5-FU having established anti-cancer activity and the compounds of formula (I) of the present invention is prepared and tested against SW480 cell lines. […] Therefore, it is yet another aspect of the present invention to provide a method of treating cancer, which comprises administering to a subject a safe and effective amounts of the compound having formula (I) of claim 1 together with other anti-cancer agent such as 5-Fu.

Each structure is given as a SMILES string.

By IC50 is commonly meant the concentration that inhibits the measured activity by half. On to `O=C1[C@H](Cc2ccc(O)cc2)N2C(=O)CCN(C(=O)NCc3ccccc3)[C@H]2CN1Cc1cccc2ccccc12` [TCF4 compound, 6-(4-Hydroxy-benzyl)-8-naphthalen-1-ylmethyl-4-oxo-hexahydro-pyrazino[1,2-α]pyrimidine-1-carboxylic Acid Benzylamide], for which the IC50 with SW480 cells [1] is about 8.07 µM. Further, the “transcription of the TCF4 responsive reporter gene luciferase” value in series [2] is “inhibits the transcription of the TCF4 responsive reporter gene luciferase in a dose-dependent manner”. In series [3], the CBP-mediated transcriptional activation result was “inhibits CBP-mediated transcriptional activation”. Further, the “binding to CBP” value at CBP is reported as “Specific binding”. Moreover, the “survivin mRNA expression level” value with survivin (RT-PCR, 25 μM, 24 hours) is recorded as “Inhibits”. Also, in the series on survivin (Western blot, 48 hrs), the “survivin protein expression level” value is “Inhibits”. For the same compound, the caspase-3 activity result with caspase-3 is “stimulated”. For the same compound, the “cell growth and colony formation” value in the series on SW480 cells [4] was “correlation between the dose of TCF4 compound and the inhibition of cell growth”. Moreover, the “inhibition of cancer cell growth in combination with 5-FU” value in the series on SW480 cells [5] was “remarkable effect for inhibiting cancer cell growth”.
